# Source: patent US12441722B2, “Therapeutic agents and methods of treatment” (University of Florida Research Foundation, Incorporated, priority 2020, dated 2025)
# Tested on: MOLT-4
# Assay: Cell viability assay (tetrazolium-based MTS) in MOLT4 cells
# Conditions: 48 h incubation
# Experimental: Cancer cells from acute lymphoblastic leukemia (MOLT4) were incubated with increasing concentrations of compounds of Examples 1-9 for 48 h. Cell viability was measured by tetrazolium-based MTS assay. 5×10^4 to 1×10^5 suspension cells or 3×10^3 to 5×10^3 adherent cells were seeded and treated in 96-well plates for 48 h. The EC50 values of individual agents were calculated with GraphPad Prism.
# [1] = Homo sapiens, MOLT-4, MOLT4 acute lymphoblastic leukemia cells
# [2] = MOLT4 acute lymphoblastic leukemia cells
SMILES,EC50 [1] [nM],EC50 [2] [nM]
"Cc1ncsc1-c1ccc([C@H](C)NC(=O)[C@@H]2C[C@@H](O)CN2C(=O)[C@@H](NC(=O)CCCCCCCCCS(=O)(=O)NC(=O)c2nc(N3CCc4cccc(C(=O)Nc5nc6ccccc6s5)c4C3)ccc2-c2cnn(CC34CC5CC(CC(C5)C3)C4)c2C)C(C)(C)C)cc1 [degrader #15, 2-(5-(1-(adamantan-1-ylmethyl)-5-methyl-1H-pyrazol-4-yl)-6-(((10-(((S)-1-((2S,4R)-4-hydroxy-2-(((S)-1-(4-(4-methylthiazol-5-yl)phenyl)ethyl)carbamoyl)pyrrolidin-1-yl)-3,3-dimethyl-1-oxobutan-2-yl)amino)-10-oxodecyl)sulfonyl)carbamoyl)pyridin-2-yl)-N-(benzo[d]thiazol-2-yl)-1,2,3,4-tetrahydroisoquinoline-8-carboxamide]",10 to 100,
"Cc1ncsc1-c1ccc([C@H](C)NC(=O)[C@@H]2C[C@@H](O)CN2C(=O)[C@@H](NC(=O)CCCCCCCCCCS(=O)(=O)NC(=O)c2nc(N3CCc4cccc(C(=O)Nc5nc6ccccc6s5)c4C3)ccc2-c2cnn(CC34CC5CC(CC(C5)C3)C4)c2C)C(C)(C)C)cc1 [degrader #16, 2-(5-(1-(adamantan-1-ylmethyl)-5-methyl-1H-pyrazol-4-yl)-6-(((11-(((S)-1-((2S,4R)-4-hydroxy-2-(((S)-1-(4-(4-methylthiazol-5-yl)phenyl)ethyl)carbamoyl)pyrrolidin-1-yl)-3,3-dimethyl-1-oxobutan-2-yl)amino)-11-oxoundecyl)sulfonyl)carbamoyl)pyridin-2-yl)-N-(benzo[d]thiazol-2-yl)-1,2,3,4-tetrahydroisoquinoline-8-carboxamide]",10 to 100,
"Cc1ncsc1-c1ccc([C@H](C)NC(=O)[C@@H]2C[C@@H](O)CN2C(=O)[C@@H](NC(=O)CCCCCCCCCCCS(=O)(=O)NC(=O)c2nc(N3CCc4cccc(C(=O)Nc5nc6ccccc6s5)c4C3)ccc2-c2cnn(CC34CC5CC(CC(C5)C3)C4)c2C)C(C)(C)C)cc1 [degrader #17, 2-(5-(1-(adamantan-1-ylymethyl)-5-methyl-1H-pyrazol-4-yl)-6-(((12-(((S)-1-((2S,4R)-4-hydroxy-2-(((S)-1-(4-(4-methylthiazol-5-yl)phenyl)ethyl)carbamoyl)pyrrolidin-1-yl)-3,3-dimethyl-1-oxobutan-2-yl)amino)-12-oxododecyl)sulfonyl)carbamoyl)pyridin-2-yl)-N-(benzo[d]thiazol-2-yl)-1,2,3,4-tetrahydroisoquinoline-8-carboxamide]",,10 to 100
"Cc1ncsc1-c1ccc([C@H](C)NC(=O)[C@@H]2C[C@@H](O)CN2C(=O)[C@@H](NC(=O)CCCCCCCS(=O)(=O)NC(=O)c2nc(N3CCc4cccc(C(=O)Nc5nc6ccccc6s5)c4C3)ccc2-c2cc(C#N)n(CC34CC5CC(CC(C5)C3)C4)c2C)C(C)(C)C)cc1 [degrader #18, 2-(5-(1-(adamantan-1-ylmethyl)-5-cyano-2-methyl-1H-pyrrol-3-yl)-6-(((8-(((S)-1-((2S,4R)-4-hydroxy-2-(((S)-1-(4-(4-methylthiazol-5-yl)phenyl)ethyl)carbamoyl)pyrrolidin-1-yl)-3,3-dimethyl-1-oxobutan-2-yl)amino)-8-oxooctyl)sulfonyl)carbamoyl)pyridin-2-yl)-N-(benzo[d]thiazol-2-yl)-1,2,3,4-tetrahydroisoquinoline-8-carboxamide]",10 to 100,
"Cc1ncsc1-c1ccc([C@H](C)NC(=O)[C@@H]2C[C@@H](O)CN2C(=O)[C@@H](NC(=O)CCCCCCCNC(=O)c2nc(N3CCc4cccc(C(=O)Nc5nc6ccccc6s5)c4C3)ccc2-c2cnn(CC34CC5CC(CC(C5)C3)C4)c2C)C(C)(C)C)cc1 [degrader #19, 2-(5-(1-(adamantan-1-ylmethyl)-5-methyl-1H-pyrazol-4-yl)-6-((8-(((S)-1-((2S,4R)-4-hydroxy-2-(((S)-1-(4-(4-methylthiazol-5-yl)phenyl)ethyl)carbamoyl)pyrrolidin-1-yl)-3,3-dimethyl-1-oxobutan-2-yl)amino)-8-oxooctyl)carbamoyl)pyridin-2-yl)-N-(benzo[d]thiazol-2-yl)-1,2,3,4-tetrahydroisoquinoline-8-carboxamide]",10 to 100,
"Cc1ncsc1-c1ccc([C@H](CC(=O)NCCNC(=O)c2nc(N3CCc4cccc(C(=O)Nc5nc6ccccc6s5)c4C3)ccc2-c2cnn(CC34CC5CC(CC(C5)C3)C4)c2C)NC(=O)[C@@H]2C[C@@H](O)CN2C(=O)[C@@H](NC(=O)C2(C#N)CC2)C(C)(C)C)cc1 [degrader #20, 2-(5-(1-(adamantan-1-ylmethyl)-5-methyl-1H-pyrazol-4-yl)-6-((2-((S)-3-((2S,4R)-1-((S)-2-(1-cyanocyclopropane-1-carboxamido)-3,3-dimethylbutanoyl)-4-hydroxypyrrolidine-2-carboxamido)-3-(4-(4-methylthiazol-5-yl)phenyl)propanamido)ethyl)carbamoyl)pyridin-2-yl)-N-(benzo[d]thiazol-2-yl)-1,2,3,4-tetrahydroisoquinoline-8-carboxamide]",10 to 100,
"Cc1ncsc1-c1ccc([C@H](CC(=O)NCCCNC(=O)c2nc(N3CCc4cccc(C(=O)Nc5nc6ccccc6s5)c4C3)ccc2-c2cnn(CC34CC5CC(CC(C5)C3)C4)c2C)NC(=O)[C@@H]2C[C@@H](O)CN2C(=O)[C@@H](NC(=O)C2(C#N)CC2)C(C)(C)C)cc1 [degrader #21, 2-(5-(1-(adamantan-1-ylmethyl)-5-methyl-1H-pyrazol-4-yl)-6-((3-((S)-3-((2S,4R)-1-((S)-2-(1-cyanocyclopropane-1-carboxamido)-3,3-dimethylbutanoyl)-4-hydroxypyrrolidine-2-carboxamido)-3-(4-(4-methylthiazol-5-yl)phenyl)propanamido)propyl)carbamoyl)pyridin-2-yl)-N-(benzo[d]thiazol-2-yl)-1,2,3,4-tetrahydroisoquinoline-8-carboxamide]",100 to 1000,
"Cc1ncsc1-c1ccc([C@H](CC(=O)NCCCCNC(=O)c2nc(N3CCc4cccc(C(=O)Nc5nc6ccccc6s5)c4C3)ccc2-c2cnn(CC34CC5CC(CC(C5)C3)C4)c2C)NC(=O)[C@@H]2C[C@@H](O)CN2C(=O)[C@@H](NC(=O)C2(C#N)CC2)C(C)(C)C)cc1 [degrader #22, 2-(5-(1-(adamantan-1-ylmethyl)-5-methyl-1H-pyrazol-4-yl)-6-((4-((S)-3-((2S,4R)-1-((S)-2-(1-cyanocyclopropane-1-carboxamido)-3,3-dimethylbutanoyl)-4-hydroxypyrrolidine-2-carboxamido)-3-(4-(4-methylthiazol-5-yl)phenyl)propanamido)butyl)carbamoyl)pyridin-2-yl)-N-(benzo[d]thiazol-2-yl)-1,2,3,4-tetrahydroisoquinoline-8-carboxamide]",10 to 100,
"Cc1ncsc1-c1ccc([C@H](CC(=O)NCCCCCNC(=O)c2nc(N3CCc4cccc(C(=O)Nc5nc6ccccc6s5)c4C3)ccc2-c2cnn(CC34CC5CC(CC(C5)C3)C4)c2C)NC(=O)[C@@H]2C[C@@H](O)CN2C(=O)[C@@H](NC(=O)C2(C#N)CC2)C(C)(C)C)cc1 [degrader #23, 2-(5-(1-(adamantan-1-ylmethyl)-5-methyl-1H-pyrazol-4-yl)-6-((5-((S)-3-((2S,4R)-1-((S)-2-(1-cyanocyclopropane-1-carboxamido)-3,3-dimethylbutanoyl)-4-hydroxypyrrolidine-2-carboxamido)-3-(4-(4-methylthiazol-5-yl)phenyl)propanamido)pentyl)carbamoyl)pyridin-2-yl)-N-(benzo[d]thiazol-2-yl)-1,2,3,4-tetrahydroisoquinoline-8-carboxamide]",10 to 100,
"Cc1ncsc1-c1ccc([C@H](CC(=O)NCCCCCCNC(=O)c2nc(N3CCc4cccc(C(=O)Nc5nc6ccccc6s5)c4C3)ccc2-c2cnn(CC34CC5CC(CC(C5)C3)C4)c2C)NC(=O)[C@@H]2C[C@@H](O)CN2C(=O)[C@@H](NC(=O)C2(C#N)CC2)C(C)(C)C)cc1 [degrader #24, 2-(5-(1-(adamantan-1-ylmethyl)-5-methyl-1H-pyrazol-4-yl)-6-((6-((S)-3-((2S,4R)-1-((S)-2-(1-cyanocyclopropane-1-carboxamido)-3,3-dimethylbutanoyl)-4-hydroxypyrrolidine-2-carboxamido)-3-(4-(4-methylthiazol-5-yl)phenyl)propanamido)hexyl)carbamoyl)pyridin-2-yl)-N-(benzo[d]thiazol-2l)-1,2,3,4-tetrahydroisoquinoline-8-carboxamide]",,100 to 1000
"Cc1ncsc1-c1ccc([C@H](CC(=O)NCCCCCCCCNC(=O)c2nc(N3CCc4cccc(C(=O)Nc5nc6ccccc6s5)c4C3)ccc2-c2cnn(CC34CC5CC(CC(C5)C3)C4)c2C)NC(=O)[C@@H]2C[C@@H](O)CN2C(=O)[C@@H](NC(=O)C2(C#N)CC2)C(C)(C)C)cc1 [degrader #25, 2-(5-(1-(adamantan-1-ylmethyl)-5-methyl-1H-pyrazol-4-yl)-6-((8-((S)-3-((2S,4R)-1-((S)-2-(1-cyanocyclopropane-1-carboxamido)-3,3-dimethylbutanoyl)-4-hydroxypyrrolidine-2-carboxamido)-3-(4-(4-methylthiazol-5-yl)phenyl)propanamido)octyl)carbamoyl)pyridin-2-yl)-N-(benzo[d]thiazol-2-yl)-1,2,3,4-tetrahydroisoquninoline-8-carboxamide]",,100 to 1000
"Cc1c(-c2ccc(N3CCc4cccc(C(=O)Nc5nc6ccccc6s5)c4C3)nc2C(=O)NCCOCCOCCOCC#Cc2cccc3c2C(=O)N(C2CCC(=O)NC2=O)C3=O)cnn1CC12CC3CC(CC(C3)C1)C2 (stereo not drawn) [degrader #26, 2-(5-(1-(adamantan-1-ylmethyl)-5-methyl-1H-pyrazol-4-yl)-6-((2-(2-(2-((3-(2-(2,6-dioxopiperidin-3-yl)-1,3-dioxoisoindolin-4-yl)prop-2-yn-1-yl)oxy)ethoxy)ethoxy)ethyl)carbamoyl)pyridin-2-yl)-N-(benzo[d]thiazol-2-yl)-1,2,3,4-tetrahydroisocuinoline-8-carboxamide]",,10 to 100
